In general, melting point refers to the temperature of the solid-liquid transition. The term IC50 denotes the concentration that inhibits the measured activity by half. Low readings indicate inhibition by little substance, high ones a need for much substance. Usually EC50 stands for the concentration that produces a half-maximal response. Low readings indicate greater potency, high ones weaker potency. As a reminder, the Emax is the size of the effect at its maximum, as opposed to the concentration needed.

Structures can show the parent of a compound that is named as a salt.

Data set [1] relates to Lasered (Hypertensive) Eyes of Conscious Cynomolgus Monkeys. In words: Acute IOP Response in Lasered (Hypertensive) Eyes of Conscious Cynomolgus Monkeys. Type of data set: in vivo, Cynomolgus monkey. Particulars: lasered eye. The procedure: Acute IOP Response in Lasered (Hypertensive) Eyes of Conscious Cynomolgus Monkeys
Intraocular pressure (IOP) was determined with an Alcon Pneumatonometer after light corneal anesthesia with 0.1% proparacaine. Eyes were washed with saline after each measurement. After a baseline IOP measurement, test compound was instilled in one 30 μL aliquot to the right eyes only of nine cynomolgus monkeys. Vehicle was instilled in the right eyes of six additional animals. Subsequent IOP measurements were taken at 1, 3, and 6 hours. A compound is considered efficacious in this model of ocular hypertension if there is a decrease in the baseline IOP of the lasered eye (O.D.) of at least 20% following topical administration.

A further data set deals with brain 5-HT2 receptors (Rattus norvegicus, UniProt P14842). In words: 5HT2 Receptor Binding Assay ([125I]DOI competition). The following applies: inhibition of [125I]DOI binding, rat or human cerebral cortex homogenates. As to the method:
5HT2 Receptor Binding Assay
Aliquots of post mortem rat or human cerebral cortex homogenates (400 μl) dispersed in 50 mM TrisHCl buffer (pH 7.4) are incubated with [^125I]DOI (80 pM final) in the absence or presence of methiothepin (10 μM final) to define total and non-specific binding, respectively, in a total volume of 0.5 ml. The assay mixture is incubated for 1 hour at 23° C. in polypropylene tubes and the assays terminated by rapid vacuum filtration over Whatman GF/B glass fiber filters previously soaked in 0.3% polyethyleneimine using ice-cold buffer. Test compounds (at different concentrations) are substituted for methiothepin. Filter-bound radioactivity is determined by scintillation spectrometry on a beta counter. The data are analyzed using a non-linear, iterative curve-fitting computer program [Trends Pharmacol. Sci., 16, 413 (1995)] to determine the compound affinity parameter. The concentration of the compound needed to inhibit the [^125I]DOI binding by 50% of the maximum is termed the IC50 value.

The target of the next data set is T1, 5-HT2 receptor (Rattus norvegicus, UniProt P14842).
T1 construct: [^3H]myo-inositol-labeled A7r5 rat vascular smooth muscle cells; endogenous in cells; host or cells: A7r5 rat vascular smooth muscle cells
T1 sequence (P14842 whole entry): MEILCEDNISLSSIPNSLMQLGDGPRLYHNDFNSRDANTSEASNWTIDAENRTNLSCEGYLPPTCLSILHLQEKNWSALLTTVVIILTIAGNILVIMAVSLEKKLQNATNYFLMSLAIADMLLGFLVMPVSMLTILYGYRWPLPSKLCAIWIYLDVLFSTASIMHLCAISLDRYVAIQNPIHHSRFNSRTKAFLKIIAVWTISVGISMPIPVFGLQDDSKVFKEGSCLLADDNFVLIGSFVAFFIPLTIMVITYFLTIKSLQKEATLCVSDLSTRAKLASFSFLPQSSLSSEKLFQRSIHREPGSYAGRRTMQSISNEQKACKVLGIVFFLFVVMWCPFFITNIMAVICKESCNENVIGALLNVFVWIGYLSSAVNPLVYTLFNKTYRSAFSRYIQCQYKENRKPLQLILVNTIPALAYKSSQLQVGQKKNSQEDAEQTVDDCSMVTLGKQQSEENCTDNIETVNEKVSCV
The data set is described as follows: 5-HT2 Functional Assay: Phosphoinositide (PI) Turnover Assay. Format: cell-based. Particulars: for EC50: [3H]inositol phosphate production in A7r5 rat vascular smooth muscle cells; for Emax: A7r5 cells, relative to 5-HT set at 100%, read-out: Efficacy (Emax, %). As to the method: 5-HT2 Functional Assay: Phosphoinositide (PI) Turnover Assay
The relative agonist activity of serotonergic compounds at the 5-HT2 receptor can be determined in vitro using the ability of the compounds to stimulate the production of [^3H]inositol phosphates in [^3H]myo-inositol-labeled A7r5 rat vascular smooth muscle cells by their ability to activate the enzyme phospholipase C. These cells are grown in culture plates, maintained in a humidified atmosphere of 5% CO2 and 95% air and fed semi-weekly with Dulbecco's modified Eagle medium (DMEM) containing 4.5 g/l glucose and supplemented with 2 mM glutamine, 10 μg/ml gentamicin, and 10% fetal bovine serum. For the purpose of conducting the phosphoinositide (PI) turnover experiments, the A7r5 cells are cultured in 24-well plates as previously [J. Pharmacol. Expt. Ther., 286, 411 (1998)]. Confluent cells are exposed for 24-30 hrs to 1.5 μCi [^3H]-myo-inositol (18.3 Ci/mmol) in 0.5 ml of serum-free medium. Cells are then rinsed once with DMEM/F-12 containing 10 mM LiCl prior to incubation with the test agent (or solvent as the control) in 1.0 ml of the same medium for 1 hr at 37° C., after which the medium is aspirated and 1 ml of cold 0.1 M formic acid added to stop the reaction. The chromatographic separation of [^3H]-inositol phosphates ([^3H]-IPs) on an AG- 1-X8 column is performed as previously described [J. Pharmacol. Expt. Ther. 286, 411 (1998)] with sequential washes with H2O and 50 mM ammonium formate, followed by elution of the total [^3H]-IPs fraction with 1.2 M ammonium formate containing 0.1 M formic acid. The eluate (4 ml) is collected, mixed with 15 ml scintillation fluid, and the total [^3H]-IPs determined by scintillation counting on a beta-counter. Concentration-response data are analyzed by the sigmoidal fit function of the Origin Scientific Graphics software (Microcal Software, Northampton, Mass.) to determine agonist potency (EC50 value) and efficacy (Emax). Serotonin (5-HT) is used as a positive control (standard) agonist compound and the efficacy of test compounds is compared to that of 5-HT (set at 100%). The concentration of the compound needed to stimulate the production of [^3H]-IPs by 50% of the maximum response is termed the EC50 value.

The mark [2] stands for this setting: 1 hour after dose, 300 μg topical.
The mark [3] stands for this setting: 3 hours after dose, 300 μg topical.
[4] abbreviates: 6 hours after dose, 300 μg topical.

Sequence of brain 5-HT2 receptors (P14842 whole entry): as above

The molecule `CC(N)Cc1cn(C)c2ccc3c(c12)CCCO3` (stereo not drawn) (as salt: hydrochloride) [Example 1, 1-Methyl-2-(3-methyl3,7,8,9-tetrabydro-pyrano[3,2-e]indol-1-yl)-ethylamine hydrochloride] yielded a melting point of 214 to 217 °C.
With `COc1cc(C[C@@H](C)N)c(OC)cc1I` [(R)-DOI, reference compound], the “Percent IOP Reduction ± SEM” value amounted to 11.0 ± 4.98% in data set [1] (1 hour after dose, 100 μg topical); 25.3 ± 2.97% in data set [1] (3 hours after dose, 100 μg topical); 34.4 ± 4.98% in data set [1] (6 hours after dose, 100 μg topical). Also, the IC50 at brain 5-HT2 receptors worked out at 0.46 nM. Moreover, a half-maximal effect on 5-HT2 receptor (EC50) was put at 27.7 nM.
For the molecule `CC(N)Cc1cn(C)c2ccc3c(c12)CCCO3` (stereo not drawn) [Example 1, 1-Methyl-2-(3-methyl3,7,8,9-tetrabydro-pyrano[3,2-e]indol-1-yl)-ethylamine hydrochloride], the entries for the “Percent IOP Reduction ± SEM” value in data set [1] (setting [2]), in data set [1] (setting [3]) and in data set [1] (setting [4]) were 18.8 ± 3.31%, 28.0 ± 5.20% and 26.1 ± 5.35%, respectively. The Emax on 5-HT2 receptor came out at 119%. This molecule also had a concentration giving a half-maximal response (EC50) on 5-HT2 receptor of 189 nM.
On the same counts, the results for `CC(N)Cc1c[nH]c2ccc3c(c12)CCCO3.Cl` (stereo not drawn) [Example 3, 1-Methyl-2-(3,7,8,9-tetrahydro-pyrano[3,2-e]indol-1-yl)-ethylamine hydrochloride] are 16.0 ± 3.79%, 28.0 ± 5.49%, 22.9 ± 6.70%, 81% and 116 nM.
On to `C[C@@H](N)Cc1c[nH]c2ccc3c(c12)CCCO3` [Example 4, (R)-1-Methyl-2-(3,7,8,9-tetrahydro-pyrano[3,2-e]indol-1-yl)ethylamine hydrochloride], for which, at 5-HT2 receptor, the Emax was 109% and the EC50 is 111 nM.
For `CC(N)Cc1c[nH]c2ccc3c(c12)CC(O)CO3.Cl` (stereo not drawn) [Example 6, 1-(2-Aminopropyl)-3,7,8,9-tetrahydro-pyrano[3,2-e]indol-8-ol hydrochloride], the melting point lay in the range of 187 to 192 °C. Besides, on 5-HT2 receptor, the Emax was 92% and a half-maximal effect (EC50) was put at 300 nM.

These data come from patent US7012090B1, “Pyranoindoles for treating glaucoma” (Alcon, Inc., priority 2000, dated 2006).
